How the values were obtained:
[1] = tested on: cholinergic synapse of the buccal ganglion; assay type: cell-based, Aplysia californica
[2] = tested on: presynaptic Ca2+ current; assay type: cell-based, Aplysia californica
[3] = tested on: postsynaptic acetylcholine (ACh) receptors; assay type: cell-based, Aplysia californica
[4] = tested on: young mice; settings: mouse, in vivo

With “Gla Cys Cys Gla Asp Gly BrW Cys Cys Thr Ala Ala OHP [P11.1]” the “amplitude of the postsynaptic response (IPSC) evoked by a presynaptic action potential, % of the initial value” [1] was 40%, the “reduction in the number of released quanta” value [1] was 60% and the “presynaptic Ca2+ current, % of the control value” [2] was 70%. The “distribution of mean amplitudes of miniature postsynaptic currents with respect to mean amplitude of the LDIPSC” value [3] was “identical to control values”, the “effect on postsynaptic acetylcholine (ACh) receptors” value [3] was “no effect” and the “dampening of the action potential” value [4] was “about 50%”.

Source: patent US6307014A (priority 1998, dated 2001)
